Laboratory results as given in ChEMBL document CHEMBL2074527, “Evidence for the absolute conformational specificity of the intestinal H+/peptide symporter, PEPT1” (J Biol Chem, 1998).

Target: T1, Solute carrier family 15 member 1 (Homo sapiens, UniProt P46059)
T1 sequence (P46059 whole entry): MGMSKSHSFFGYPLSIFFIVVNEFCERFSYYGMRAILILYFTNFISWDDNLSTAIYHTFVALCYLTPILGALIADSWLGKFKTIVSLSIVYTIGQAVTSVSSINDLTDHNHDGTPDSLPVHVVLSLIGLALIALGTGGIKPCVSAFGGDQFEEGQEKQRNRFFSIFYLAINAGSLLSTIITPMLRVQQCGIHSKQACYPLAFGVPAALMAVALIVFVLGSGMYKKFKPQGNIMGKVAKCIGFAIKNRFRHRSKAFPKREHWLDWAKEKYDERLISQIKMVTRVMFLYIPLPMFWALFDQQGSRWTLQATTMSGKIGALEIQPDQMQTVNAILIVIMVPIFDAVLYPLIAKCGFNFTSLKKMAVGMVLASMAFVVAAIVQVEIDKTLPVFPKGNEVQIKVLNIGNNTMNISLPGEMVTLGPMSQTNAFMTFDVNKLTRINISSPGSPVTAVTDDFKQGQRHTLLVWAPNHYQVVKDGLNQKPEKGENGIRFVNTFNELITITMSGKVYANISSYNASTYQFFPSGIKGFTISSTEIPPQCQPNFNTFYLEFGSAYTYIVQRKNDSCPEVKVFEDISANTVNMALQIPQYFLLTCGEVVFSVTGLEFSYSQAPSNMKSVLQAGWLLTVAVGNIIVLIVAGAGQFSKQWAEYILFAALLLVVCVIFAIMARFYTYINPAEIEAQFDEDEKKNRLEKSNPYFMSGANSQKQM
Assay: TP_TRANSPORTER: inhibition of Gly-Sar uptake, 96% trans conformation in Caco-2 cells
Type: functional, cell-based

Ki: 300 µM
SMILES: CC(N)C(=S)N1CCCC1C(=O)O (stereo unspecified)
